# Assay results: the supplement of paper PMC10307832
# Key:
# Assay in all cases: relative viability (nuclei count vs DMSO), 5 days (fraction); higher = more cells survive
# [1] = compound: C[C@@H](C(=O)N[C@@H](C1CCCCC1)C(=O)N2CCC[C@H]2C(=O)N[C@@H]3[C@@H](CC4=CC=CC=C34)OCC#CC#CCO[C@@H]5CC6=CC=CC=C6[C@@H]5NC(=O)[C@@H]7CCCN7C(=O)[C@H](C8CCCCC8)NC(=O)[C@H](C)NC)NC [AZD5582] + Cc1nc(Nc2ncc(C(=O)Nc3c(C)cccc3Cl)s2)cc(N2CCN(CCO)CC2)n1 [Dasatinib] (partner 0.075 µM)
# Summary of the method: (§1)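 Lung cancer cell lines in 1536-well plates were dosed by pin tool the day after seeding, either with one drug alone or with a fixed anchor-drug dose plus five library-drug doses (not always all listed) in √10 steps. After 5 days, cells were fixed and their nuclei stained in one step (final 0.05% Triton X-100, 1% formaldehyde, 1 ug/ml Hoechst), then counted on 4× images. Relative viability is the nuclei count in treated wells divided by that in vehicle wells. Values are medians of duplicate plates.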
# [2] = compound: Cn1nnc2c(C(N)=O)ncn2c1=O [Temozolomide] + CS(=O)(=O)N1CCN(Cc2cc3nc(-c4cccc5[nH]ncc45)nc(N4CCOCC4)c3s2)CC1 [Pictilisib] (partner 1 µM)
# Summary of the method: as §1
# [3] = compound: Cn1nnc2c(C(N)=O)ncn2c1=O [Temozolomide] + CC(=O)Nc1cccc(-n2c(=O)n(C3CC3)c(=O)c3c(Nc4ccc(I)cc4F)n(C)c(=O)c(C)c32)c1 [Trametinib] (partner 0.02 µM)
# Summary of the method: as §1
# [4] = compound: Cn1nnc2c(C(N)=O)ncn2c1=O [Temozolomide] + COc1cc2c(Oc3ccc(NC(=O)C4(C(=O)Nc5ccc(F)cc5)CC4)cc3F)ccnc2cc1OCCCN1CCOCC1 [Foretinib] (partner 0.25 µM)
# Summary of the method: as §1
Cell Line,relative viability ([1]; first compound 0.001581 µM),relative viability ([1]; first compound 0.005 µM),relative viability ([1]; first compound 0.01581 µM),relative viability ([1]; first compound 0.05 µM),relative viability ([2]; first compound 0.2 µM),relative viability ([2]; first compound 0.6325 µM),relative viability ([2]; first compound 2 µM),relative viability ([2]; first compound 6.325 µM),relative viability ([2]; first compound 20 µM),relative viability ([3]; first compound 0.2 µM),relative viability ([3]; first compound 0.6325 µM),relative viability ([3]; first compound 2 µM),relative viability ([3]; first compound 6.325 µM),relative viability ([3]; first compound 20 µM),relative viability ([4]; first compound 0.2 µM),relative viability ([4]; first compound 0.6325 µM),relative viability ([4]; first compound 2 µM),relative viability ([4]; first compound 6.325 µM),relative viability ([4]; first compound 20 µM)
NCI-H358,0.158,0.193,0.265,0.166,0.342,0.392,0.348,0.305,0.283,0.108,0.143,0.131,0.139,0.145,0.477,0.707,0.614,0.657,0.541
NCI-H441,0.591,0.726,–,0.508,0.437,0.443,0.543,0.375,0.51,0.543,0.642,0.478,0.425,0.459,1.12,0.937,1.15,1.02,1.07
NCI-H460,0.439,0.578,0.429,0.362,0.326,0.318,0.472,0.272,0.309,0.136,0.236,0.158,0.0735,0.134,0.988,0.967,1,0.96,1.11
NCI-H520,0.202,0.227,0.206,0.178,0.243,0.304,0.312,0.305,0.326,0.715,0.717,0.676,0.683,0.597,0.908,0.842,0.704,0.689,0.769
NCI-H596,–,–,0.617,0.233,0.421,0.404,0.411,0.385,0.384,0.916,0.714,0.943,0.789,0.877,0.952,0.925,0.997,0.451,0.818
NCI-H647,0.175,0.187,0.119,0.207,0.419,0.444,0.406,0.272,0.216,0.528,0.537,0.56,0.353,0.227,1.16,1.3,1.13,0.702,0.302
NCI-H650,0.447,0.418,0.305,0.308,0.875,0.97,0.943,0.865,0.908,0.954,1.02,1.38,0.869,1.01,0.898,0.991,1.06,1,1.07
NCI-H661,0.866,1.15,0.908,0.873,0.313,0.371,0.39,0.388,0.39,0.513,0.564,0.654,0.528,0.562,0.941,1.01,1.05,0.955,0.963
NCI-H727,0.317,0.319,0.505,0.274,0.324,0.316,0.364,0.286,0.371,–,0.426,0.397,0.435,0.403,0.835,0.791,0.99,0.705,0.702
NCI-H838,0.293,0.344,–,0.191,0.45,0.48,0.577,0.446,0.584,0.498,0.559,0.586,0.482,0.585,1.01,0.939,1.02,0.994,1.09
NCI-H1355,0.638,0.749,0.583,0.719,0.433,0.46,0.427,0.38,0.39,0.436,0.464,0.483,0.452,0.403,0.947,0.938,1.1,1,0.908
NCI-H1395,0.437,0.458,0.354,0.46,0.554,0.631,0.719,0.612,0.572,0.815,1.06,1.17,0.986,1.02,0.865,0.92,1.03,0.94,0.911
NCI-H1437,0.289,0.452,0.387,0.414,0.474,0.539,0.502,0.521,0.44,0.539,0.544,0.561,0.594,0.565,1.27,1.25,1.27,1.26,1.31
NCI-H1650,0.293,0.352,0.341,0.344,0.661,0.611,0.55,0.579,0.478,0.618,0.654,0.611,0.642,0.39,1.14,1.07,1.02,0.872,0.766
NCI-H1651,0.428,0.478,–,0.552,0.567,0.681,0.654,0.588,0.613,0.677,0.834,0.818,0.77,0.84,0.914,0.725,0.782,0.759,0.839
NCI-H1666,0.656,0.814,0.757,0.846,0.433,0.404,0.394,0.345,0.298,0.828,0.871,0.739,0.809,0.732,0.917,0.868,0.837,0.611,0.679
